Test results: patent US10898451B2 (Board of Regents of the University of Texas System, priority 2018, dated 2021)

What was measured:
anti-NMDAR encephalitis = experiment: Case study: tramadol pre-treatment with therapeutic plasma exchange (PLEX) in a patient with anti-NMDAR encephalitis; type: in vivo, human
Excerpt: Described herein is a previously healthy person with newly diagnosed seizures and schizophrenia. […] At that time, they were started on solumedrol 1 g each day for five days along with the last two days of the steroid course being completed. […] Their anti-epileptic medications were escalated to include levetiracetam, phenobarbital, and lacosimide.
The assay used a semi-quantitative indirect immunofluorescence on human embryonic kidney cell cultures expressing recombinant NMDA receptors (transfected HEK 293 cells). […] NMDA receptor antibodies were not sent from their serum. […] Six days after their colectomy, PLEX was restarted for another five sessions.

[1] = Grond and Sablotzki 2004; cited from earlier work
[2] = oral formulation; Grond and Sablotzki 2004; cited from earlier work
[3] = PLEX in combination with tramadol 100 mg enterally three times a day

## CNC1(c2ccccc2Cl)CCCCC1=O (stereo not shown) [ketamine]
anti-NMDAR encephalitis; ketamine at 20 mcg/kg/min, patient obtunded and not following commands
  facial dyskinesias during the first three PLEX sessions (without tramadol): minimal improvement

## C[C@H]1C[C@@H]2[C@H]([C@@H](O)C[C@@]3(C)[C@H]2CC[C@]3(O)C(=O)COC(=O)CCC(=O)O)[C@@]2(C)C=CC(=O)C=C12 [solumedrol]
anti-NMDAR encephalitis; solumedrol 1 g each day for five days
  improvement of symptoms after steroid course: failed to improve any of their symptoms

## COc1cccc(C2(O)CCCCC2CN(C)C)c1 (stereo not shown) [tramadol, 2-(dimethylaminomethyl)-1-(3-methoxyphenyl)cyclohexanol]
anti-NMDAR encephalitis; [3]
  facial dyskinesias by the end of the fifth PLEX session: completely resolved
  following commands by the end of the third PLEX session: began to follow commands
  level of consciousness by the end of the fifth PLEX session: alert and awake enough to interact with their care providers
anti-NMDAR encephalitis; conclusion of the case study
  overall safety and efficacy in anti-NMDAR encephalitis: safe and an effective treatment
anti-NMDAR encephalitis; nine months after symptoms onset
  recurrence of symptoms at follow up: has not had any recurrent symptoms
anti-NMDAR encephalitis; patient, tramadol 100 mg enterally three times a day, one hour before each of five PLEX sessions
  facial dyskinesias after the first PLEX session: resolved
anti-NMDAR encephalitis; tramadol 100 mg enterally three times a day, one hour before each PLEX session
  eye opening immediately following the first PLEX session: opened their eyes spontaneously
[1]
  patients with serious side effects (hypotension, circulatory collapse, pruritis, sleep disorders, somnolence, abdominal pain, tachycardia): less than 1%
[2]
  absorption: completely absorbed
  brain concentration versus plasma: higher brain concentration than in plasma
  peak onset: approximately 60 min
